Some results are limits rather than exact numbers.

In US11040028B2, “Penicinotam derivative, preparation method and use thereof” (OCEAN UNIVERSITY OF CHINA, priority 2017, dated 2021) one finds IC50 data, which are given here for 15 compounds.

What all share (type): cell-based
The test system of assay [1] is mouse macrophages (RAW264.7). As to the kind of experiment: Lipopolysaccharide-induced NO secretion in macrophages (Griess). The settings on record: Mus musculus, RAW264.7, 24 h, RAW264.7, LPS 1 μg/ml, a/b isomers given as first/second symbol, read-out: IC50 (μM), inhibition of lipopolysaccharide-induced NO secretion in macrophages. A digest of the protocol: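 Absorbance at 548 nm after Griess reagent addition to culture supernatant gave NO content; inhibition rate was derived relative to blank control. Cells were mouse RAW264.7 macrophages exposed to compounds and 1 μg/ml LPS for 24 hours.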
On the technique in general: Nitrite, measured by Griess reagent, commonly stands in for NO production.

In assay [2] the test system is cardiac fibroblast RAT-iCell-C002. Description: Anti-fibrosis activity test: inhibition of proliferation of cardiac fibroblast RAT-iCell-C002 (CCK-8). As to conditions: Cardiac fibroblast, 48 h, cardiac fibroblast RAT-iCell-C002, CCK-8, 48 hours. The method, boiled down: (§1)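 A CCK-8 proliferation assay was run: cells at 2×10^4 cells/mL, adherent for 24 h, then incubated 48 h at 37° C with compound dilutions. A450 was recorded 2 h after CCK-8 addition and converted to percent inhibition versus blank for IC50 determination.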

In a further assay the test system is BHK-21 cells. As to the kind of experiment: Anti-fibrosis activity test: inhibition of BHK-21 cell proliferation (CCK-8). As to conditions: Mesocricetus auratus, BHK-21, 48 h, CCK-8, 48 hours after administration. A digest of the protocol: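 BHK-21 cells seeded at 2×10^4 cells/mL, allowed to adhere 24 h at 37° C, 5% CO2, then exposed to compounds at graded concentrations in triplicate for 48 h. CCK-8 added for 2 h and absorbance read at 450 nm; inhibition rate taken as (1−Ai/Ao)×100% and IC50 fitted.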

The test system of assay [3] is human fibrosarcoma cells HT-1080. Description: Anti-fibrosis activity test: inhibition of proliferation of human fibrosarcoma cells HT-1080 (CCK-8). As to conditions: Homo sapiens, HT-1080, 48 h, human fibrosarcoma cells HT-1080, CCK-8, 48 hours. A digest of the protocol:
as §1

Assay [4] relates to human lung fibroblasts HFL1. Description: Anti-fibrosis activity test: inhibition of proliferation of human lung fibroblasts HFL1 (CCK-8). As to conditions: Homo sapiens, HFL1, 48 h, human lung fibroblasts HFL1, CCK-8, 48 hours. A digest of the protocol:
as §1

For assay [5], the system named is human embryonic lung fibroblast IMR-90. Description: Anti-fibrosis activity test: inhibition of proliferation of human embryonic lung fibroblast IMR-90 (CCK-8). The settings on record: human embryonic lung fibroblast IMR-90, CCK-8, 48 hours. The method, boiled down: as §1
Assay [6] has as its system human hepatic stellate cells LX-2. Description: Anti-fibrosis activity test: inhibition of proliferation of human hepatic stellate cells LX-2 (CCK-8). The settings on record: Homo sapiens, 48 h, human hepatic stellate cells LX-2, CCK-8, 48 hours. A digest of the protocol:
as §1

The test system of assay [7] is human dermal fibroblasts CCC-ESF-1. Description: Anti-fibrosis activity test: inhibition of proliferation of human dermal fibroblasts CCC-ESF-1 (CCK-8). As to conditions: Fibroblast; human dermal fibroblasts CCC-ESF-1, CCK-8, 48 hours. The method, boiled down: as §1
In the next assay the test system is NF-κB. As to the kind of experiment: Immunological activity test: inhibition of NF-κB activity. As to conditions: initial concentration of 30 μM; a/b isomers given as first/second symbol; read-out: IC50 (μM), inhibitory activity against NF-κB. A digest of the protocol: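 Single-point testing at 30 μM preceded IC50 determination.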

The IC50 is the point on the concentration scale where inhibition reaches its midpoint. Consider `O=C1c2c(n(CCF)c3ccccc3c2=O)-c2cccn21` [Compound 653a, 4-(2-Fluoroethyl)-9H-pyrrolizino[1,2-b]quinoline-9,10(4H)-dione], for which the IC50 in assay [1] lay in the range of 1 to 10 µM; in assay [2] it was 0.05 to 5 mM; with BHK-21 cells, 0.05 to 5 mM; in assay [3], 0.05 to 5 mM; in assay [4], 0.05 to 5 mM; in assay [5], 0.05 to 5 mM. Also, the values for the IC50 (in [6]; in assay [7]; in the assay on NF-κB) were 0.05 to 5 mM, 0.05 to 5 mM and 1 to 10 µM, respectively.
As to `O=C1c2c(nc3ccccc3c2OCCF)-c2cccn21` [Compound 653b, 9-(2-fluoroethoxy)-10H-pyrrolizino[1,2-b]quinolin-10-one], the IC50 in [1] lay within 1 to 10 µM; in [2] it was 0.05 to 5 mM; with BHK-21 cells it was 0.05 to 5 mM; in assay [3], 0.05 to 5 mM; in [4] it was 0.05 to 5 mM; in assay [5] it was 0.05 to 5 mM. In addition, the IC50 fell in the range of 0.05 to 5 mM in assay [6], 0.05 to 5 mM in assay [7] and 1 to 10 µM with NF-κB.
For the compound `CCOC(=O)Cn1c2c(c(=O)c3ccccc31)C(=O)n1cccc1-2` [Compound 654a, Ethyl 2-(9,10-dioxo-9H-pyrrolizino[1,2-b]quinolin-4(10H)-yl)acetate], the IC50 lay in the range of 1 to 10 µM in assay [1]; 0.05 to 5 mM in assay [2]; 5 to 20 mM in the assay with BHK-21 cells; 0.05 to 5 mM in [3]; 0.05 to 5 mM in assay [4]; 0.05 to 5 mM in assay [5]. Moreover, the IC50 was 0.05 to 5 mM in [6], less than 0.05 mM in assay [7] and 1 to 10 µM in the assay with NF-κB.
For the compound `CCOC(=O)COc1c2c(nc3ccccc13)-c1cccn1C2=O` [Compound 654b, ethyl 2-((10-oxo-10H-pyrrolizino[1,2-b]quinolin-9-yl)oxy)acetate], the IC50 in assay [1] was 1 to 10 µM; in assay [2], 0.05 to 5 mM; in the assay on BHK-21 cells, 0.05 to 5 mM; in assay [3], 0.05 to 5 mM; in [4], 0.05 to 5 mM; in [5], 0.05 to 5 mM. In addition, the results for the IC50 (in assay [6]; in [7]; in the assay on NF-κB) were 0.05 to 5 mM, less than 0.05 mM and 1 to 10 µM, respectively.
In the case of `CC(C)(C)Cn1c2c(c(=O)c3ccccc31)C(=O)n1cccc1-2` [Compound 656a, 4-Neopentyl-9H-pyrrolizino[1,2-b]quinoline-9,10(4H)-dione], the IC50 in assay [1] is 1 to 10 µM; in assay [2], 0.05 to 5 mM; in the assay on BHK-21 cells, 0.05 to 5 mM; in assay [3], 0.05 to 5 mM; in assay [4], 0.05 to 5 mM; in [5], 0.05 to 5 mM. For the same compound, the values for the half-inhibitory concentration (IC50) (in assay [6]; in [7]; in the assay on NF-κB) were 0.05 to 5 mM, 0.05 to 5 mM and 1 to 10 µM, respectively.
As to `CC(C)(C)COc1c2c(nc3ccccc13)-c1cccn1C2=O` [Compound 656b, 9-(neopentyloxy)-10H-pyrrolizino[1,2-b]quinolin-10-one], the IC50 in assay [1] was 1 to 10 µM; in assay [2], 0.05 to 5 mM; in the assay with BHK-21 cells, 0.05 to 5 mM; in [3] it was 0.05 to 5 mM; in assay [4], 0.05 to 5 mM; in assay [5], 0.05 to 5 mM. Also, the IC50 in [6] was in the range of 0.05 to 5 mM; in assay [7], 0.05 to 5 mM; in the assay on NF-κB, 1 to 10 µM.
For `O=C1c2c(n(CC(F)(F)F)c3ccccc3c2=O)-c2cccn21` [Compound 657a, 4-(2,2,2-Trifluoroethyl)-9H-pyrrolizino[1,2-b]quinoline-9,10(4H)-dione], the concentration for half-maximal inhibition (IC50) lay within 1 to 10 µM in assay [1]; 0.05 to 5 mM in assay [2]; 0.05 to 5 mM in the assay on BHK-21 cells; 0.05 to 5 mM in [3]; 0.05 to 5 mM in assay [4]; 0.05 to 5 mM in assay [5]. For the same compound, the results for the IC50 (in assay [6]; in assay [7]; in the assay with NF-κB) were 0.05 to 5 mM, 0.05 to 5 mM and 0.1 to 1 µM, respectively.
Take `O=C1c2c(nc3ccccc3c2OCC(F)(F)F)-c2cccn21` [Compound 657b, 9-(2,2,2-trifluoroethoxy)-10H-pyrrolizino[1,2-b]quinolin-10-one]: the IC50 in assay [1] lay within 1 to 10 µM; in assay [2] it was 0.05 to 5 mM; with BHK-21 cells it was 0.05 to 5 mM; in assay [3], 0.05 to 5 mM; in assay [4], 0.05 to 5 mM; in [5] it was 0.05 to 5 mM. The IC50 in assay [6] fell in the range of 0.05 to 5 mM; in [7], 0.05 to 5 mM; in the assay on NF-κB it was 10 to 50 µM.
For the compound `CN(C)CCCn1c2c(c(=O)c3ccccc31)C(=O)n1cccc1-2` [Compound 658a, 4-(3-(Dimethylamino)propyl)-9H-pyrrolizino[1,2-b]quinoline-9,10(4H)-dione], the IC50 in [1] lay in the range of 1 to 10 µM; in assay [2] it was 0.05 to 5 mM; in the assay with BHK-21 cells, 0.05 to 5 mM; in [3], 0.05 to 5 mM; in [4], 0.05 to 5 mM; in assay [5], 0.05 to 5 mM. The IC50 lay in the range of 0.05 to 5 mM in [6], 0.05 to 5 mM in [7] and 0.001 to 0.1 µM in the assay on NF-κB.
For the compound `CN(C)CCCOc1c2c(nc3ccccc13)-c1cccn1C2=O` [Compound 658b, 9-(3-(dimethylamino)propoxy)-10H-pyrrolizino[1,2-b]quinolin-10-one], the IC50 in assay [1] lay within 1 to 10 µM; in assay [2], 0.05 to 5 mM; with BHK-21 cells, 0.05 to 5 mM; in assay [3] it was 0.05 to 5 mM; in assay [4], 0.05 to 5 mM; in assay [5], 0.05 to 5 mM. Besides, the IC50 in assay [6] lay in the range of 0.05 to 5 mM; in assay [7], 0.05 to 5 mM; in the assay with NF-κB, 1 to 10 µM.
For `CS(=O)(=O)CCCn1c2c(c(=O)c3ccccc31)C(=O)n1cccc1-2` [Compound 659a, 4-(3-(Methylsulfonyl)propyl)-9H-pyrrolizino[1,2-b]quinoline-9,10(4H)-dione], the half-inhibitory concentration (IC50) lay within 1 to 10 µM in assay [1]; 0.05 to 5 mM in [2]; 0.05 to 5 mM in the assay with BHK-21 cells; 0.05 to 5 mM in assay [3]; 0.05 to 5 mM in assay [4]; 0.05 to 5 mM in [5]. In addition, the IC50 in assay [6] lay within 0.05 to 5 mM; in assay [7], 0.05 to 5 mM; in the assay on NF-κB, 1 to 10 µM.
Regarding `CS(=O)(=O)CCCOc1c2c(nc3ccccc13)-c1cccn1C2=O` [Compound 659b, 9-(3-(methylsulfonyl)propoxy)-10H-pyrrolizino[1,2-b]quinolin-10-one], the IC50 lay within 1 to 10 µM in assay [1]; 0.05 to 5 mM in [2]; 0.05 to 5 mM in the assay on BHK-21 cells; 0.05 to 5 mM in assay [3]; 0.05 to 5 mM in [4]; 0.05 to 5 mM in assay [5]. For the same compound, the IC50 in assay [6] fell in the range of 0.05 to 5 mM; in assay [7], 0.05 to 5 mM; in the assay on NF-κB, 1 to 10 µM.
Turning to `CC(C)(O)Cn1c2c(c(=O)c3ccccc31)C(=O)n1cccc1-2` [Compound 660a, 4-(2-Hydroxy-2-methylpropyl)-9H-pyrrolizino[1,2-b]quinoline-9,10(4H)-dione], the IC50 in [1] is 1 to 10 µM; in assay [2], 0.05 to 5 mM; in the assay on BHK-21 cells, 0.05 to 5 mM; in assay [3], 0.05 to 5 mM; in assay [4], 0.05 to 5 mM; in assay [5], 0.05 to 5 mM. The results for the IC50 (in assay [6]; in [7]; in the assay on NF-κB) were 0.05 to 5 mM, 0.05 to 5 mM and 1 to 10 µM, respectively.
Regarding `CC(C)(O)COc1c2c(nc3ccccc13)-c1cccn1C2=O` [Compound 660b, 9-(2-hydroxy-2-methylpropoxy)-10H-pyrrolizino[1,2-b]quinolin-10-one], the IC50 in assay [1] lay within 1 to 10 µM; in [2], 0.05 to 5 mM; with BHK-21 cells it was 0.05 to 5 mM; in assay [3], 0.05 to 5 mM; in [4] it was 0.05 to 5 mM; in [5], 0.05 to 5 mM. For the same compound, the IC50 in assay [6] was in the range of 0.05 to 5 mM; in assay [7], 0.05 to 5 mM; in the assay on NF-κB, 1 to 10 µM.
Take `CCOC(=O)/C=C/Cn1c2c(c(=O)c3ccccc31)C(=O)n1cccc1-2` [Compound 661a, Ethyl (E)-4-(9,10-dioxo-9H-pyrrolizino[1,2-b]quinolin-4(10H)-yl)but-2-enoate]: the IC50 in assay [1] is 1 to 10 µM; in assay [2], 0.05 to 5 mM; in the assay on BHK-21 cells, less than 0.05 mM; in assay [3], 0.05 to 5 mM; in assay [4], 0.05 to 5 mM; in assay [5], 0.05 to 5 mM. The IC50 in assay [6] was in the range of 0.05 to 5 mM; in assay [7], 0.05 to 5 mM; with NF-κB, 0.1 to 1 µM.
